Results reported in ChEMBL document CHEMBL1201861, “Genomics of Drug Sensitity in Cancer screening data, Wellcome Trust Sanger Institute”.
Where a name gives a salt, the structure may show the parent alone.

What was measured:
HCC70 = assay: cells; type: functional, cell-based, Homo sapiens; details: Homo sapiens, HCC70
Description: SANGER: Inhibition of human HCC70 cell growth in a cell viability assay.

COLO-678 = assay: cells; type: functional, cell-based, Homo sapiens; details: Homo sapiens, COLO-678
Description: SANGER: Inhibition of human COLO-678 cell growth in a cell viability assay.

EVSA-T = assay: cells; type: functional, cell-based, Homo sapiens; details: Homo sapiens, EVSA-T
Description: SANGER: Inhibition of human EVSA-T cell growth in a cell viability assay.

MDA-MB-453 = assay: cells; type: functional, cell-based, Homo sapiens; details: Homo sapiens, MDA-MB-453
Description: SANGER: Inhibition of human MDA-MB-453 cell growth in a cell viability assay.

MDA-MB-175-VII = assay: cells; type: functional, cell-based, Homo sapiens; details: Homo sapiens, MDA-MB-175-VII
SW1990 = assay: cells; type: functional, cell-based, Homo sapiens; details: Homo sapiens, SW1990
Description: SANGER: Inhibition of human SW1990 cell growth in a cell viability assay.

SIMA = assay: cells; type: functional, cell-based, Homo sapiens; details: Homo sapiens, SIMA
Description: SANGER: Inhibition of human SIMA cell growth in a cell viability assay.

KYSE-150 cell line = assay: cells; type: functional, cell-based, Homo sapiens; details: Homo sapiens, KYSE-150
Description: SANGER: Inhibition of human KYSE-150 cell growth in a cell viability assay.

U-251 = assay: cells; type: functional, cell-based, Homo sapiens; details: Homo sapiens, U-251
Description: SANGER: Inhibition of human U251 cell growth in a cell viability assay.

NCI-H1522 = assay: cells; type: functional, cell-based, Homo sapiens; details: Homo sapiens, NCI-H1522
Description: SANGER: Inhibition of human NCI-H1522 cell growth in a cell viability assay.

T98G = assay: cells; type: functional, cell-based, Homo sapiens; details: Homo sapiens, T98G
Description: SANGER: Inhibition of human T98G cell growth in a cell viability assay.

SR = assay: cells; type: functional, cell-based, Homo sapiens; details: Homo sapiens, SR
Description: SANGER: Inhibition of human SR cell growth in a cell viability assay.

SU-DHL-1 = assay: SANGER: Inhibition of human SU-DHL-1 cell growth in a cell viability assay.; type: functional, cell-based; details: Homo sapiens, SU-DHL-1
T-24 = assay: cells; type: functional, cell-based, Homo sapiens; details: Homo sapiens, T-24
Description: SANGER: Inhibition of human T-24 cell growth in a cell viability assay.

5637 = assay: cells; type: functional, cell-based, Homo sapiens; details: Homo sapiens
Description: SANGER: Inhibition of human 5637 cell growth in a cell viability assay.

NY = assay: cells; type: functional, cell-based, Homo sapiens; details: Homo sapiens, NY
Description: SANGER: Inhibition of human NY cell growth in a cell viability assay.

PA-1 = assay: cells; type: functional, cell-based, Homo sapiens; details: Homo sapiens, PA-1
Description: SANGER: Inhibition of human PA-1 cell growth in a cell viability assay.

HCC1395 = assay: cells; type: functional, cell-based, Homo sapiens; details: Homo sapiens, HCC1395
Description: SANGER: Inhibition of human HCC1395 cell growth in a cell viability assay.

MEL-JUSO = assay: cells; type: functional, cell-based, Homo sapiens; details: Homo sapiens, MEL-JUSO
Description: SANGER: Inhibition of human MEL-JUSO cell growth in a cell viability assay.

NCI-H1703 = assay: cells; type: functional, cell-based, Homo sapiens; details: Homo sapiens, NCI-H1703
Description: SANGER: Inhibition of human NCI-H1703 cell growth in a cell viability assay.

NCI-H727 = assay: cells; type: functional, cell-based, Homo sapiens; details: Homo sapiens, NCI-H727
Description: SANGER: Inhibition of human NCI-H727 cell growth in a cell viability assay.

CESS = assay: SANGER: Inhibition of human CESS cell growth in a cell viability assay.; type: functional, cell-based; details: Homo sapiens, CESS
CAL-120 = assay: cells; type: functional, cell-based, Homo sapiens; details: Homo sapiens, CAL-120
Description: SANGER: Inhibition of human CAL-120 cell growth in a cell viability assay.

NCCIT = assay: SANGER: Inhibition of human NCCIT cell growth in a cell viability assay.; type: functional, cell-based; details: Homo sapiens, NCCIT
CP50-MEL-B = assay: cells; type: functional, cell-based, Homo sapiens; details: Homo sapiens, CP50-MEL-B
Description: SANGER: Inhibition of human CP50-MEL-B cell growth in a cell viability assay.

UMC-11 = assay: cells; type: functional, cell-based, Homo sapiens; details: Homo sapiens, UMC-11
Description: SANGER: Inhibition of human UMC-11 cell growth in a cell viability assay.

NCI-H2170 = assay: cells; type: functional, cell-based, Homo sapiens; details: Homo sapiens, NCI-H2170
Description: SANGER: Inhibition of human NCI-H2170 cell growth in a cell viability assay.

MDA-MB-361 = assay: cells; type: functional, cell-based, Homo sapiens; details: Homo sapiens, MDA-MB-361
NCI-H64 = assay: cells; type: functional, cell-based, Homo sapiens; details: Homo sapiens, NCI-H64
Description: SANGER: Inhibition of human NCI-H64 cell growth in a cell viability assay.

MDA-MB-157 = assay: cells; type: functional, cell-based, Homo sapiens; details: Homo sapiens, MDA-MB-157
Description: SANGER: Inhibition of human MDA-MB-157 cell growth in a cell viability assay.

U2OS = assay: cells; type: functional, cell-based, Homo sapiens, U-2-OS; details: Homo sapiens, U2OS
Description: SANGER: Inhibition of human U-2-OS cell growth in a cell viability assay.

NCI-H1437 = assay: cells; type: functional, cell-based, Homo sapiens; details: Homo sapiens, NCI-H1437
Description: SANGER: Inhibition of human NCI-H1437 cell growth in a cell viability assay.

NCI-H322M = assay: cells; type: functional, cell-based, Homo sapiens; details: Homo sapiens, NCI-H322M
Description: SANGER: Inhibition of human NCI-H322M cell growth in a cell viability assay.

KYSE-410 = assay: cells; type: functional, cell-based, Homo sapiens; details: Homo sapiens, KYSE-410
Description: SANGER: Inhibition of human KYSE-410 cell growth in a cell viability assay.

HSC-4 = assay: cells; type: functional, cell-based, Homo sapiens; details: Homo sapiens, HSC-4
Description: SANGER: Inhibition of human HSC-4 cell growth in a cell viability assay.

HSC-3 = assay: cells; type: functional, cell-based, Homo sapiens; details: Homo sapiens, HSC-3
Description: SANGER: Inhibition of human HSC-3 cell growth in a cell viability assay.

TE-441-T = assay: cells; type: functional, cell-based, Homo sapiens; details: Homo sapiens, TE-441-T
Description: SANGER: Inhibition of human TE-441-T cell growth in a cell viability assay.

AU565 = assay: cells; type: functional, cell-based, Homo sapiens; details: Homo sapiens, AU565
Description: SANGER: Inhibition of human AU565 cell growth in a cell viability assay.

M14 = assay: cells; type: functional, cell-based, Homo sapiens; details: Homo sapiens, M14
Description: SANGER: Inhibition of human M14 cell growth in a cell viability assay.

SCC-25 = assay: cells; type: functional, cell-based, Homo sapiens; details: Homo sapiens, SCC-25
Description: SANGER: Inhibition of human SCC-25 cell growth in a cell viability assay.

SKG-IIIa = assay: cells; type: functional, cell-based, Homo sapiens; details: Homo sapiens, SKG-IIIa
Description: SANGER: Inhibition of human SKG-IIIa cell growth in a cell viability assay.

## Oc1ccc2ccccc2c1SSc1c(O)ccc2ccccc12
HCC70
  IC50: > 32000 nM
COLO-678
  IC50: > 32000 nM
EVSA-T
  IC50: > 32000 nM
MDA-MB-453
  IC50: > 32000 nM
MDA-MB-175-VII
  IC50: > 32000 nM
SW1990
  IC50: > 32000 nM
SIMA
  IC50: > 32000 nM
KYSE-150 cell line
  IC50: > 32000 nM
U-251
  IC50: > 32000 nM
NCI-H1522
  IC50: > 32000 nM
T98G
  IC50: > 32000 nM
SR
  IC50: 5370 nM
SU-DHL-1
  IC50: > 32000 nM
T-24
  IC50: > 32000 nM
5637
  IC50: > 32000 nM
NY
  IC50: > 32000 nM
PA-1
  IC50: 27100 nM
HCC1395
  IC50: > 32000 nM
MEL-JUSO
  IC50: > 32000 nM
NCI-H1703
  IC50: > 32000 nM
NCI-H727
  IC50: 19700 nM
CESS
  IC50: 12400 nM
CAL-120
  IC50: > 32000 nM
NCCIT
  IC50: 29800 nM
CP50-MEL-B
  IC50: > 32000 nM
UMC-11
  IC50: > 32000 nM
NCI-H2170
  IC50: > 32000 nM
MDA-MB-361
  IC50: > 32000 nM
NCI-H64
  IC50: > 32000 nM
MDA-MB-157
  IC50: > 32000 nM
U2OS
  IC50: > 32000 nM
NCI-H1437
  IC50: > 32000 nM
NCI-H322M
  IC50: > 32000 nM
KYSE-410
  IC50: > 32000 nM
HSC-4
  IC50: > 32000 nM
HSC-3
  IC50: > 32000 nM
TE-441-T
  IC50: 11500 nM
AU565
  IC50: 31200 nM
M14
  IC50: > 32000 nM
SCC-25
  IC50: > 32000 nM
SKG-IIIa
  IC50: > 32000 nM

## CCC/C=C/C=C/C(=O)O[C@H]1/C(=C/C(=O)OC)C[C@H]2C[C@H]([C@@H](C)O)OC(=O)C[C@H](O)C[C@@H]3C[C@H](OC(C)=O)C(C)(C)[C@](O)(C[C@@H]4C/C(=C/C(=O)OC)C[C@H](/C=C/C(C)(C)[C@]1(O)O2)O4)O3 [BRYOSTATIN 1]
HCC70
  IC50: > 8 nM
COLO-678
  IC50: > 8 nM
EVSA-T
  IC50: > 8 nM
MDA-MB-453
  IC50: > 8 nM
MDA-MB-175-VII
  IC50: > 8 nM
SW1990
  IC50: > 8 nM
SIMA
  IC50: > 8 nM
KYSE-150 cell line
  IC50: > 8 nM
U-251
  IC50: > 8 nM
NCI-H1522
  IC50: > 8 nM
T98G
  IC50: > 8 nM
SR
  IC50: > 8 nM
SU-DHL-1
  IC50: > 8 nM
T-24
  IC50: > 8 nM
5637
  IC50: > 8 nM
NY
  IC50: > 8 nM
PA-1
  IC50: > 8 nM
HCC1395
  IC50: > 8 nM
MEL-JUSO
  IC50: > 8 nM
NCI-H1703
  IC50: > 8 nM
NCI-H727
  IC50: > 8 nM
CESS
  IC50: > 8 nM
CAL-120
  IC50: > 8 nM
NCCIT
  IC50: > 8 nM
CP50-MEL-B
  IC50: > 8 nM
UMC-11
  IC50: > 8 nM
NCI-H2170
  IC50: > 8 nM
MDA-MB-361
  IC50: > 8 nM
NCI-H64
  IC50: > 8 nM
MDA-MB-157
  IC50: > 8 nM
U2OS
  IC50: > 8 nM
NCI-H1437
  IC50: > 8 nM
NCI-H322M
  IC50: > 8 nM
KYSE-410
  IC50: > 8 nM
HSC-4
  IC50: > 8 nM
HSC-3
  IC50: > 8 nM
TE-441-T
  IC50: > 8 nM
AU565
  IC50: > 8 nM
M14
  IC50: > 8 nM
SCC-25
  IC50: > 8 nM
SKG-IIIa
  IC50: > 8 nM

## COC1=CC(c2cc3ccccc3[nH]2)=N/C1=C\c1[nH]c(C)cc1C [OBATOCLAX MESYLATE]
HCC70
  IC50: 1460 nM
COLO-678
  IC50: 3380 nM
EVSA-T
  IC50: 817 nM
MDA-MB-453
  IC50: 2230 nM
MDA-MB-175-VII
  IC50: 1690 nM
SW1990
  IC50: 239 nM
SIMA
  IC50: 494 nM
KYSE-150 cell line
  IC50: 40.1 nM
U-251
  IC50: 335 nM
NCI-H1522
  IC50: 2020 nM
T98G
  IC50: 5070 nM
SR
  IC50: < 62.5 nM
SU-DHL-1
  IC50: 1250 nM
T-24
  IC50: 9940 nM
5637
  IC50: 83.7 nM
NY
  IC50: 118 nM
PA-1
  IC50: 87.7 nM
HCC1395
  IC50: 1930 nM
MEL-JUSO
  IC50: 24.7 nM
NCI-H1703
  IC50: 594 nM
NCI-H727
  IC50: 80.5 nM
CESS
  IC50: 82.7 nM
CAL-120
  IC50: 296 nM
NCCIT
  IC50: 1380 nM
CP50-MEL-B
  IC50: 87.9 nM
UMC-11
  IC50: 1400 nM
NCI-H2170
  IC50: 683 nM
MDA-MB-361
  IC50: 998 nM
NCI-H64
  IC50: 38.4 nM
MDA-MB-157
  IC50: 823 nM
U2OS
  IC50: > 16000 nM
NCI-H1437
  IC50: 408 nM
NCI-H322M
  IC50: > 16000 nM
KYSE-410
  IC50: 98 nM
HSC-4
  IC50: 667 nM
HSC-3
  IC50: < 62.5 nM
TE-441-T
  IC50: 1430 nM
AU565
  IC50: 425 nM
M14
  IC50: 460 nM
SCC-25
  IC50: 44.9 nM
SKG-IIIa
  IC50: 4680 nM

## Cc1cc([N+](=O)[O-])ccc1NS(=O)(=O)c1cc(Cl)ccc1Cl
HCC70
  IC50: 6620 nM
COLO-678
  IC50: 10900 nM
EVSA-T
  IC50: 11900 nM
MDA-MB-453
  IC50: 10800 nM
MDA-MB-175-VII
  IC50: 2020 nM
SW1990
  IC50: 5380 nM
SIMA
  IC50: 13800 nM
KYSE-150 cell line
  IC50: 5060 nM
U-251
  IC50: 2170 nM
NCI-H1522
  IC50: > 32000 nM
T98G
  IC50: 10600 nM
SR
  IC50: 4950 nM
SU-DHL-1
  IC50: > 32000 nM
T-24
  IC50: > 32000 nM
5637
  IC50: 7250 nM
NY
  IC50: 3320 nM
PA-1
  IC50: 2900 nM
HCC1395
  IC50: 381 nM
MEL-JUSO
  IC50: 5170 nM
NCI-H1703
  IC50: 3290 nM
NCI-H727
  IC50: 2030 nM
CESS
  IC50: > 32000 nM
CAL-120
  IC50: 6020 nM
NCCIT
  IC50: 13400 nM
CP50-MEL-B
  IC50: 1030 nM
UMC-11
  IC50: 1090 nM
NCI-H2170
  IC50: 1440 nM
MDA-MB-361
  IC50: 3660 nM
NCI-H64
  IC50: > 32000 nM
MDA-MB-157
  IC50: 8590 nM
U2OS
  IC50: > 32000 nM
NCI-H1437
  IC50: 2730 nM
NCI-H322M
  IC50: > 32000 nM
KYSE-410
  IC50: 5830 nM
HSC-4
  IC50: 12200 nM
HSC-3
  IC50: 2890 nM
TE-441-T
  IC50: 7310 nM
AU565
  IC50: 2340 nM
M14
  IC50: > 32000 nM
SCC-25
  IC50: 10900 nM
SKG-IIIa
  IC50: > 32000 nM
